Results taken from patent US7511173B2, “Creatine salt with enhanced nutritional and therapeutic efficacy and compositions containing same” (Iovate T & P Inc., priority 2004, dated 2009).

Key:
Assay type in all cases: physicochemical
[1] = hygroscopicity
[2] = pH of aqueous solution; conditions: c = 1% in water
[3] = stability in aqueous solution (titer, degradation into creatinine); conditions: solution of about 15 mg/ml (1.5%), after 10 days at room temperature

hygroscopicity [1]	pH [2]	Compound	titer drop in aqueous solution [3]
non-hygroscopic	6; c = 1% in water	CN(CC(=O)O)C(=N)N.NCC(=O)O [creatine glycinate]	–
–	–	citrate	about 50%
